Measured values from the kinase profiling compilation of Christmann-Franck et al. (2016).

Tests used:
Experiment in all cases: KINOMEscan competition binding
Details in all cases: compound 10.0 µM
DSTYK (human) = DSTYK (human) (UniProt Q6XUX3)
CDK2 (human) = CDK2 (human) (UniProt P24941)
CDC42BPB (human) = CDC42BPB (human) (UniProt Q9Y5S2)
PKN3 (M.tuberculosis) = PKN3 (M.tuberculosis) (UniProt Q6P5Z2)
ACVR1 (human) = ACVR1 (human) (UniProt Q04771)
PIP4K2B (human) = PIP4K2B (human) (UniProt P78356)
ACVR2B (human) = ACVR2B (human) (UniProt Q13705)
MAPK13 (human) = MAPK13 (human) (UniProt O15264)
SRC (human) = SRC (human) (UniProt P12931)
Chain of SRC (human) (P12931 whole entry, looked up): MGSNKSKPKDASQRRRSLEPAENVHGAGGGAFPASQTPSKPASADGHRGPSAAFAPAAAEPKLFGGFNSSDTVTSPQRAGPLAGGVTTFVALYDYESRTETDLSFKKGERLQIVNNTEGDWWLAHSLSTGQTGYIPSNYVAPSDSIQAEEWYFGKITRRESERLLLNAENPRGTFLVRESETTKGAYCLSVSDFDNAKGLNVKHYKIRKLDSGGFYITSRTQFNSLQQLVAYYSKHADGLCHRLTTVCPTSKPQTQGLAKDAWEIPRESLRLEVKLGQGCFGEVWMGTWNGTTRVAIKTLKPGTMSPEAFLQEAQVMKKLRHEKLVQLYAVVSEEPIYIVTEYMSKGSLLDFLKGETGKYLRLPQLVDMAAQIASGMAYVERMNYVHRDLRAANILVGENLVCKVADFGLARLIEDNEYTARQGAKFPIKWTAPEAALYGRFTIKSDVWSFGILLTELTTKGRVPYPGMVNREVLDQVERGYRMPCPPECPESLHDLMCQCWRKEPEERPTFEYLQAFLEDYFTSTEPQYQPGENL

ULK1 (human) = ULK1 (human) (UniProt O75385)
Chain of ULK1 (human) (O75385 whole entry, looked up): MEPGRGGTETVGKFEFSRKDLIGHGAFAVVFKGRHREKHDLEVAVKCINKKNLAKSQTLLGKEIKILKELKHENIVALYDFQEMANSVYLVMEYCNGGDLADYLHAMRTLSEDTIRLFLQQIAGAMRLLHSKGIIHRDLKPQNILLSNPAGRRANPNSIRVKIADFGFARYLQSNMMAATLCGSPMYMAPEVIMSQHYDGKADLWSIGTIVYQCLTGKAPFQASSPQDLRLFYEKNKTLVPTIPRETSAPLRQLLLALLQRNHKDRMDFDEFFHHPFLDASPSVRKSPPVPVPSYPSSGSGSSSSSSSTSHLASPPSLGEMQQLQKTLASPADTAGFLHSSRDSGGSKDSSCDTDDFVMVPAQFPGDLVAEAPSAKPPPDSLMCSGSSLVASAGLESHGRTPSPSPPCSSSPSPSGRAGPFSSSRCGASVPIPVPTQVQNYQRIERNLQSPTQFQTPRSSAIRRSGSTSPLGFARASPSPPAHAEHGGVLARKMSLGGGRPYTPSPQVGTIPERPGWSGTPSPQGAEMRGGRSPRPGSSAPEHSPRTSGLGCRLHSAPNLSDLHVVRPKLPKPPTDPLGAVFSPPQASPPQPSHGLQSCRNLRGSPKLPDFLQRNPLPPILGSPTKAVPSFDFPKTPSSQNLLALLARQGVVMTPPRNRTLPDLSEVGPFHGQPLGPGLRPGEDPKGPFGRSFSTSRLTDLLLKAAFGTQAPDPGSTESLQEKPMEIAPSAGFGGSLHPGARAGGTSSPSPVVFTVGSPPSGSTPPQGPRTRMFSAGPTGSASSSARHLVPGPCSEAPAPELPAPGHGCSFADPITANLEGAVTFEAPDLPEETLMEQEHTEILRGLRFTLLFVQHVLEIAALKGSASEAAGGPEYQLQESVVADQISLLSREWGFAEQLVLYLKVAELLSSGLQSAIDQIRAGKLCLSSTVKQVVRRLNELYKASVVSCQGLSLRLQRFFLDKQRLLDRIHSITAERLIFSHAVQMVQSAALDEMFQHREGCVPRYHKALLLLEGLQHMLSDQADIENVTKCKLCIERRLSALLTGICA

MTOR (human) = MTOR (human) (UniProt P42345)
PHKG1 (human) = PHKG1 (human) (UniProt Q16816)
FYN (human) = FYN (human) (UniProt P06241)
PKN2 (human) = PKN2 (human) (UniProt Q16513)
ERBB2 (human) = ERBB2 (human) (UniProt P04626)
Chain of ERBB2 (human) (P04626 whole entry, looked up): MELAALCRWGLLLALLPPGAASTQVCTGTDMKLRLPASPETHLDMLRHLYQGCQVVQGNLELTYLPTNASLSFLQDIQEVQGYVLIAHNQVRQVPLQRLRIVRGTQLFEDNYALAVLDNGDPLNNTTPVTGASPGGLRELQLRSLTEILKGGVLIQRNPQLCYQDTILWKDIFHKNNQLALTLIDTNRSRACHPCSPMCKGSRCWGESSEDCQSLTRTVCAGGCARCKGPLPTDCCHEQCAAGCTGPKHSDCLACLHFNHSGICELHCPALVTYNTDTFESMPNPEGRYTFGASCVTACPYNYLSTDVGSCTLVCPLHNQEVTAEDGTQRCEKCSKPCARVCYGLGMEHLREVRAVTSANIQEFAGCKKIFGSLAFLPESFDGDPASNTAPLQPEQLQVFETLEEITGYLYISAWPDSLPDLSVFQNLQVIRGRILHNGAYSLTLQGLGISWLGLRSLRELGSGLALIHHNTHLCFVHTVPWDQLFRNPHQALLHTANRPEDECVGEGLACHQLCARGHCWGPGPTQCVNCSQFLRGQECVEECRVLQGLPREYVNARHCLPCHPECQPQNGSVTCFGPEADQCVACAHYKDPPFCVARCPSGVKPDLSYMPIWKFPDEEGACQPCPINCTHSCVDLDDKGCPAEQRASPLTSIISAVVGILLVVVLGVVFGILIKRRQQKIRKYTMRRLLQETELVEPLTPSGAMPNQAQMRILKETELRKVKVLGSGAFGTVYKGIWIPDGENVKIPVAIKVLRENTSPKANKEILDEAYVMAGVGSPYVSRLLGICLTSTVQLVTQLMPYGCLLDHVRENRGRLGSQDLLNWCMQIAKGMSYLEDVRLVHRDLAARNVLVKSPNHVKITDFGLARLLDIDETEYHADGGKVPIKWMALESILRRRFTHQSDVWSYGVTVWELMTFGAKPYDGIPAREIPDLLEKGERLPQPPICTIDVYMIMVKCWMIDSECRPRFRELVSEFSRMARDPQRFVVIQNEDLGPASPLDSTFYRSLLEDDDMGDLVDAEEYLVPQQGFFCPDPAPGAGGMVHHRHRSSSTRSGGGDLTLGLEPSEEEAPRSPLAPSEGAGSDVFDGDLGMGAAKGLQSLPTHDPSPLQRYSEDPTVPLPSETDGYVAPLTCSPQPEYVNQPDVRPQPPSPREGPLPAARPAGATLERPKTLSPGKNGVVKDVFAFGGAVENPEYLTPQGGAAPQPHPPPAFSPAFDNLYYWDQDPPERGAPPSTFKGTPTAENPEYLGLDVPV

RIPK4 (human) = RIPK4 (human) (UniProt P57078)
NIM1 (human) = NIM1 (human) (UniProt Q8IY84)
[1] = system: KIT (human), P10721 [V559D/V654A]
CDK4 CCND1 (human) = CDK4 CCND1 (human) (UniProt P11802+P24385)
[2] = system: MET (human), P08581 [M1250T]
CLK4 (human) = CLK4 (human) (UniProt Q9HAZ1)
CDK3 (human) = CDK3 (human) (UniProt Q00526)
Chain of CDK3 (human) (Q00526 whole entry, looked up): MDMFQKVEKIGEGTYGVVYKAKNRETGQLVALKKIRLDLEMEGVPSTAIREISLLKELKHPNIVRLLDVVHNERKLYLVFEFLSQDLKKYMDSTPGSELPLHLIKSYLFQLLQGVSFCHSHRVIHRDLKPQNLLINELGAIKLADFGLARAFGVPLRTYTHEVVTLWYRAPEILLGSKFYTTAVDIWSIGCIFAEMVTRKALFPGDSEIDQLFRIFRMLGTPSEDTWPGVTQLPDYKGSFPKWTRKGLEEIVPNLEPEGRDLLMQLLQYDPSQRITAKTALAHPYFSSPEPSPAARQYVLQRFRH

AAK1 (human) = AAK1 (human) (UniProt Q2M2I8)
Chain of AAK1 (human) (Q2M2I8 whole entry, looked up): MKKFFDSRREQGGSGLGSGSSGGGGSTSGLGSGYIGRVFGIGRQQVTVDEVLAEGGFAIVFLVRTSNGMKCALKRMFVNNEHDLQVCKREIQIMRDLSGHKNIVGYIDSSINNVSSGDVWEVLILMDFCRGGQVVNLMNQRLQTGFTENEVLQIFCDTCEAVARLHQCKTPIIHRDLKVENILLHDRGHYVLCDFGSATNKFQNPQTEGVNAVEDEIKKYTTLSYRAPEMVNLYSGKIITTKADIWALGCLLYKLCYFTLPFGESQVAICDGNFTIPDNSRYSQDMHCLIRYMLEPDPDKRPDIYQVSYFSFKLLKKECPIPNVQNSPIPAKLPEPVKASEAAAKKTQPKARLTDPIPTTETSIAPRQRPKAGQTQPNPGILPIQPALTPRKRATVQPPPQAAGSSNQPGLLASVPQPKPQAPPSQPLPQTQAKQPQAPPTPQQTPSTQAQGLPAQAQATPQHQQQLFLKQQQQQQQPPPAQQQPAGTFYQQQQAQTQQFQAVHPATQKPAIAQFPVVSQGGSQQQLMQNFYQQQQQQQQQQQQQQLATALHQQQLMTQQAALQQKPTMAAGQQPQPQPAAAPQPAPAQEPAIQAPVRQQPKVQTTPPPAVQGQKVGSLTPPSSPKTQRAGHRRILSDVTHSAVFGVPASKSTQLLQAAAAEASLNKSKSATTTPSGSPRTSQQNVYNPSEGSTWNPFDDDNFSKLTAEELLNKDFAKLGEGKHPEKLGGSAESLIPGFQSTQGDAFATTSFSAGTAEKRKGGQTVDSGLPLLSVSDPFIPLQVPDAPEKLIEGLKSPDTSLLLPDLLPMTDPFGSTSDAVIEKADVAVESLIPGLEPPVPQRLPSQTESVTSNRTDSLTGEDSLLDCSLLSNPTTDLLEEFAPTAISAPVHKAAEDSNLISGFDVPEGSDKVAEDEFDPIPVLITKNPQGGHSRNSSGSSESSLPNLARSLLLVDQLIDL

PDGFRB (human) = PDGFRB (human) (UniProt P09619)
CDK14 (human) = CDK14 (human) (UniProt O94921)
PRKG1 (human) = PRKG1 (human) (UniProt Q13976)
STK4 (human) = STK4 (human) (UniProt Q13043)
ALK (human) = ALK (human) (UniProt Q9UM73)
[3] = system: EGFR (human), P00533 [L861Q]
MYLK4 (human) = MYLK4 (human) (UniProt Q86YV6)
DCLK2 (human) = DCLK2 (human) (UniProt Q8N568)
EPHB4 (human) = EPHB4 (human) (UniProt P54760)
Chain of EPHB4 (human) (P54760 whole entry, looked up): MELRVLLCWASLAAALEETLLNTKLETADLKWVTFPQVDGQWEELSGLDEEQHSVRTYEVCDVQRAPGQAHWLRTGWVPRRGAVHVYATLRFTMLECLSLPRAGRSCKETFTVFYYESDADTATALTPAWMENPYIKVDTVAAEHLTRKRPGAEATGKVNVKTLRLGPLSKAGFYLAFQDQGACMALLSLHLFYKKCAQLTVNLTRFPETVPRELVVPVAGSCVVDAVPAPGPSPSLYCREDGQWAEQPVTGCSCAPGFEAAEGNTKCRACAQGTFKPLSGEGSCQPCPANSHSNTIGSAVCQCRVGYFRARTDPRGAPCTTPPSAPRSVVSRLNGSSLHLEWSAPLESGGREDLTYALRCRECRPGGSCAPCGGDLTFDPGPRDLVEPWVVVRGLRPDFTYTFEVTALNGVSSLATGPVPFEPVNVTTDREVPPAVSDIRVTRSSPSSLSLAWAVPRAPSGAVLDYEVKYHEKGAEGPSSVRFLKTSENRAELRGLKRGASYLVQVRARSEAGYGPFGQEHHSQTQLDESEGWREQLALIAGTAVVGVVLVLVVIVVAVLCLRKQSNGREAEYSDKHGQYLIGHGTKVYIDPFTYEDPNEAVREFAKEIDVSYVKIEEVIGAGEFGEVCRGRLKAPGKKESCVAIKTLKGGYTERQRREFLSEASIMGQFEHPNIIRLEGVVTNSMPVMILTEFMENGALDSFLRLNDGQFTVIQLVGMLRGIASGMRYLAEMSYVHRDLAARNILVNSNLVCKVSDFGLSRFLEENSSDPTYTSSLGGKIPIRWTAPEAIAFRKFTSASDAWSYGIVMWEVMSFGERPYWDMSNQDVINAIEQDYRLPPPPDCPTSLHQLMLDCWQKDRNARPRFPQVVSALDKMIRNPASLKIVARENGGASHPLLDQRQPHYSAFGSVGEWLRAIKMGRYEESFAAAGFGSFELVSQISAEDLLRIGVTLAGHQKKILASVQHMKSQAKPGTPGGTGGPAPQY

SIK1 (human) = SIK1 (human) (UniProt P57059)
[4] = system: EGFR (human), P00533 [T790M]
[5] = system: RET (human), P07949 [M918T]
STK10 (human) = STK10 (human) (UniProt O94804)
IRAK3 (human) = IRAK3 (human) (UniProt Q9Y616)
MAPK3 (human) = MAPK3 (human) (UniProt P27361)
STK32C (human) = STK32C (human) (UniProt Q86UX6)
MLTK (human) = MLTK (human) (UniProt Q9NYL2)
FLT1 (human) = FLT1 (human) (UniProt P17948)
MAP3K6 (human) = MAP3K6 (human) (UniProt O95382)

Question: What does the source list for Cc1cc([C@@H](C)Nc2ccccc2C(=O)O)c2nc(N3CCOCC3)cc(=O)n2c1?
Answer: kinase still bound, per cent of control (DSTYK (human)): 90%; kinase still bound, per cent of control (CDK2 (human)): 64%; kinase still bound, per cent of control (CDC42BPB (human)): 100%; kinase still bound, per cent of control (PKN3 (M.tuberculosis)): 100%; kinase still bound, per cent of control (ACVR1 (human)): 100%; kinase still bound, per cent of control (PIP4K2B (human)): 84%; kinase still bound, per cent of control (ACVR2B (human)): 100%; kinase still bound, per cent of control (MAPK13 (human)): 100%; kinase still bound, per cent of control (SRC (human)): 100%; kinase still bound, per cent of control (ULK1 (human)): 73%; kinase still bound, per cent of control (MTOR (human)): 18%; kinase still bound, per cent of control (PHKG1 (human)): 100%; kinase still bound, per cent of control (FYN (human)): 41%; kinase still bound, per cent of control (PKN2 (human)): 74%; kinase still bound, per cent of control (ERBB2 (human)): 96%; kinase still bound, per cent of control (RIPK4 (human)): 87%; kinase still bound, per cent of control (NIM1 (human)): 100%; kinase still bound, per cent of control [1]: 100%; kinase still bound, per cent of control (CDK4 CCND1 (human)): 38%; kinase still bound, per cent of control [2]: 67%; kinase still bound, per cent of control (CLK4 (human)): 100%; kinase still bound, per cent of control (CDK3 (human)): 92%; kinase still bound, per cent of control (AAK1 (human)): 91%; kinase still bound, per cent of control (PDGFRB (human)): 58%; kinase still bound, per cent of control (CDK14 (human)): 100%; kinase still bound, per cent of control (PRKG1 (human)): 79%; kinase still bound, per cent of control (STK4 (human)): 72%; kinase still bound, per cent of control (ALK (human)): 100%; kinase still bound, per cent of control [3]: 76%; kinase still bound, per cent of control (MYLK4 (human)): 75%; kinase still bound, per cent of control (DCLK2 (human)): 100%; kinase still bound, per cent of control (EPHB4 (human)): 95%; kinase still bound, per cent of control (SIK1 (human)): 100%; kinase still bound, per cent of control [4]: 100%; kinase still bound, per cent of control [5]: 100%; kinase still bound, per cent of control (STK10 (human)): 71%; kinase still bound, per cent of control (IRAK3 (human)): 75%; kinase still bound, per cent of control (MAPK3 (human)): 94%; kinase still bound, per cent of control (STK32C (human)): 89%; kinase still bound, per cent of control (MLTK (human)): 100%; kinase still bound, per cent of control (FLT1 (human)): 96%; kinase still bound, per cent of control (MAP3K6 (human)): 94%
